Source: PubChem BioAssay (NCI)
Values joined by “and” are separate entries in the source; they are usually repeats but may differ in a detail not shown here. Equal values may be shown once.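 Cultured in 96-well plates, cells were exposed to test compound for 48 hours across five concentrations. TGI: concentration producing complete growth inhibition.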

What was measured:
Test in all cases: NCI-60 cell line screen, 48 h
[1] = test system: BT-549 breast
[2] = test system: HCC-2998 colon
[3] = test system: HCT-15 colon
[4] = test system: MDA-MB-231 breast
[5] = test system: NCI/ADR-RES ovarian
[6] = test system: OVCAR-5 ovarian
[7] = test system: SF-268 CNS
[8] = test system: SF-295 CNS
[9] = test system: SN12C renal
[10] = test system: SW-620 colon

| SMILES | TGI [1] | TGI [2] | TGI [3] | TGI [4] | TGI [5] | TGI [6] | TGI [7] | TGI [8] | TGI [9] | TGI [10] |
| --- | --- | --- | --- | --- | --- | --- | --- | --- | --- | --- |
| COC(=O)C(Cc1c(C2Nc3ccccc3C2CC(NC(=O)CNC(C)=O)C(=O)OC)[nH]c2ccccc12)NC(=O)CNC(C)=O (stereo not given) | > 100 µM | > 100 µM | > 100 µM | > 100 µM | > 100 µM | > 100 µM | > 100 µM | > 100 µM | > 100 µM | > 100 µM |
| C[Si](C)(OCCS(=O)(=O)O)C1(Cc2cccc3ccccc23)S(=O)(=O)OCCOS1(=O)=O | 33.5 µM | 30.7 µM | 52.1 µM | 43.3 µM | > 100 µM | 33.1 µM | 79.5 µM | 69.9 µM | 41.3 µM | 33.7 µM |
| COC(=O)NCCc1[nH]nc2c1C(=O)C=C(N1CCOCC1)C2=O | > 100 µM | > 100 µM | > 100 µM | > 100 µM | > 100 µM | > 100 µM | > 100 µM | > 100 µM | > 100 µM | > 100 µM |
| O=C1NC(SSC2=NNC3(C(=O)N2)c2ccccc2-c2ccccc23)=NNC12c1ccccc1-c1ccccc12 | > 10 µM | > 10 µM | > 10 µM | > 10 µM | > 10 µM | > 10 µM | > 10 µM | > 10 µM | > 10 µM | > 10 µM |
| Cn1c(=O)c(C(=O)Nc2nc(C34CC5CC(CC(C5)C3)C4)cs2)c(O)c2ccccc21 | > 100 µM | > 100 µM | > 100 µM | > 100 µM | 70.2 µM | > 100 µM | > 100 µM | > 100 µM | > 100 µM | > 100 µM |
| O=S(=O)(O)c1cc(O)c2c(N=Cc3ccccc3O)cc(S(=O)(=O)O)cc2c1 | > 100 µM | > 100 µM | > 100 µM | > 100 µM | > 100 µM | > 100 µM | > 100 µM | > 100 µM | > 100 µM | > 100 µM |
| COC(=O)C1=C(C(=O)OC)C(C(=O)c2ccc(Br)cc2)N2N=C(c3ccc(Cl)cc3)C=CC12 (stereo not given) | > 100 µM | > 100 µM | > 100 µM | > 100 µM | > 100 µM | > 100 µM | > 100 µM | > 100 µM | > 100 µM | > 100 µM |
| O=[N+]([O-])C1CC/C(=N/O)c2nonc21 (stereo not given) | > 10 µM | > 10 µM | > 10 µM | > 10 µM | > 10 µM | > 10 µM | > 10 µM | > 10 µM | > 10 µM | > 10 µM |
| CCN(CC)CC1CCCCN1CC(=O)N1c2ccccc2NC(=O)CC1C (stereo not given) | > 100 µM | > 100 µM | > 100 µM | > 100 µM | > 100 µM | > 100 µM | > 100 µM | > 100 µM | > 100 µM | > 100 µM |
| CCOP(=O)(OCC)/C(C#N)=C/c1cn(C)cn1 | > 100 µM | > 100 µM | > 100 µM | > 100 µM | > 100 µM | > 100 µM | > 100 µM | > 100 µM | > 100 µM | > 100 µM |
| CCC(CON(C)c1ccccc1)(SC)SC | > 100 µM | > 100 µM | > 100 µM | > 100 µM | > 100 µM | > 100 µM | > 100 µM | > 100 µM | > 100 µM | > 100 µM |
| CN(CCn1cnc2c1c(=O)n(C)c(=O)n2C)C1CCCCC1 | > 100 µM | > 100 µM | > 100 µM | > 100 µM | > 100 µM | > 100 µM | > 100 µM | > 100 µM | > 100 µM | > 100 µM |
| CCSc1sc(=Nc2ccc(N=c3sc(C)c(SC)s3)cc2)sc1-c1ccc(C)cc1 | > 100 µM | > 100 µM | > 100 µM | > 100 µM | > 100 µM | > 100 µM | > 100 µM | > 100 µM | > 100 µM | > 100 µM |
| Cc1[nH]c2c(c1C)S(=O)(=O)c1cc3ccccc3nc1N2 | > 100 µM | > 100 µM | > 100 µM | 76.1 µM | > 100 µM | 59 µM | > 100 µM | > 100 µM | 36.9 µM | > 100 µM |
| O=C(c1ccccc1)N1CCN(C(=S)N(C(=O)c2ccccc2)c2ccccc2)C1=S | 13.7 µM | 14.5 µM | 7.76 µM | > 42.5 µM | > 27.7 µM | 42.1 µM | 14.7 µM | 31.6 µM | 12.2 µM | > 43.5 µM |
| CCCCc1ccc(Nc2nc3c(ncn3C3CC(O)C(CN=[N+]=[N-])O3)c(=O)[nH]2)cc1 (stereo not given) | > 100 µM | > 100 µM | > 100 µM | > 100 µM | > 100 µM | > 100 µM | > 100 µM | > 100 µM | > 100 µM | > 100 µM |
| COc1ccc2nc3ccc(OC)cc3c(SCCO)c2c1 | > 100 µM | > 100 µM | > 100 µM | > 100 µM | > 80.3 µM | > 100 µM | 96.9 µM | > 100 µM | > 100 µM | > 100 µM |

| SMILES | TGI [1] | TGI [2] | TGI [3] | TGI [4] | TGI [5] | TGI [6] | TGI [7] | TGI [8] | TGI [9] | TGI [10] |
| --- | --- | --- | --- | --- | --- | --- | --- | --- | --- | --- |
| CN(C)CCNC(=O)c1cccc2c(NCCN(C)C)c3ccccc3nc12 | 18.4 µM | 3.73 µM | 24.7 µM | 4.58 µM | 25.7 µM | 11.1 µM | 11.2 µM | 17.6 µM | 5.94 µM | > 23.4 µM |
| CCOC(=O)C1=CNC(C(=O)OCC)C1c1cccn1-c1ccc(Cl)cc1[N+](=O)[O-] (stereo not given) | 61.2 µM | 51.9 µM | 46.6 µM | 27.2 µM | 62.5 µM | 60.3 µM | 55.5 µM | 31.3 µM | 37.8 µM | > 100 µM |
| O=C1CC2(c3ccccc3)ON=C(c3ccccc3)N2c2ccccc2N1 (stereo not given) | > 100 µM | > 100 µM | > 100 µM | > 100 µM | > 100 µM | > 100 µM | > 100 µM | > 100 µM | > 100 µM | > 100 µM |
| Oc1ccc(-c2nc(-c3cccnc3)c(-c3ccc(Cl)cc3)[nH]2)cc1O | 21.6 µM | 26.6 µM | 22.2 µM | 47.8 µM | 32.5 µM | 35.3 µM | 39.7 µM | 29.8 µM | 31.3 µM | 27.2 µM |
| N#CCc1n[nH]c(Cc2ccccc2)n1 | > 100 µM | > 100 µM | > 100 µM | > 100 µM | > 100 µM | > 100 µM | > 100 µM | > 100 µM | > 100 µM | > 100 µM |
| C[C@]12CC[C@H]3[C@@H](CC=C4C[C@@H](N5CCCC5)CC[C@@]43C)[C@@H]1C[C@H](N1CCOCC1)[C@@H]2O | > 100 µM | > 100 µM | > 100 µM | > 100 µM | > 100 µM | > 100 µM | > 100 µM | > 100 µM | > 100 µM | > 100 µM |
| COC(=O)CCC(=O)NC1=C(NCc2ccccc2)C(=O)c2ccccc2C1=O | > 100 µM | > 100 µM | 51.5 µM | 85.7 µM | > 100 µM | 98.7 µM | > 100 µM | > 100 µM | 88.2 µM | 59.2 µM |
| CC(C)/C(Cl)=N\OC(=O)Nc1ccccc1F | 27.6 µM | 19.6 µM | 31.3 µM | 22.6 µM | 30.7 µM | 33.3 µM | 41.9 µM | 30.3 µM | 26.8 µM | 3.59 µM |
| COC(=O)[C@]1(c2cc3ccccc3n2S(=O)(=O)c2ccccc2)CC2CN(C(C)=O)C1CC2=O (stereo not given in full) | 7.24 µM | 14 µM | 9.06 µM | 7.4 µM | > 40.4 µM | 13.1 µM | 5.83 µM | 30.1 µM | 8.11 µM | > 20.9 µM |
| CCCCC(=O)NS(=NC(=O)c1ccccc1)C(Cl)(Cl)Cl (stereo not given) | > 100 µM | > 100 µM | > 100 µM | > 100 µM | > 100 µM | > 100 µM | > 100 µM | > 100 µM | > 100 µM | > 100 µM |
| O=CN1CCN(C(=O)c2ccc(Cl)cc2Cl)C1=S | > 100 µM | > 100 µM | > 100 µM | > 100 µM | > 100 µM | > 100 µM | > 100 µM | > 100 µM | > 100 µM | > 100 µM |
| CC(=O)OC(/C=C/c1ccccc1)P1(=O)N(CC(C)(C)C)[C@@H]2CCCC[C@H]2N1CC(C)(C)C (stereo not given in full) | 28.5 µM and 25.9 µM | 16.1 µM and 8.6 µM | 20.9 µM and 17.6 µM | 24.4 µM and 20.4 µM | 20.6 µM and 18.3 µM | 23.4 µM and 23.5 µM | 23.3 µM and 22.7 µM | 25.4 µM and 14.9 µM | 22.6 µM and 21.6 µM | 31.3 µM and 20.7 µM |
| COC(=O)C1Cc2c(OC)ccc(OC)c2CC(C(=O)OC)C1=O (stereo not given) | > 100 µM | > 100 µM | > 100 µM | > 100 µM | > 100 µM | > 100 µM | > 100 µM | > 100 µM | > 100 µM | > 100 µM |
| COC(=O)CCC(=O)NC1=C(Nc2ccc(OC)cc2)C(=O)c2ccccc2C1=O | 29 µM | 35.7 µM | 21.4 µM | 27.3 µM | 60.3 µM | 31 µM | 98.2 µM | 25.8 µM | 27.3 µM | 29.7 µM |
| Cc1nc(C)c(C(=O)NNC(N)=S)cc1C(=O)NNC(N)=S | > 100 µM | > 100 µM | > 100 µM | > 100 µM | > 100 µM | > 100 µM | > 100 µM | > 100 µM | > 100 µM | > 100 µM |
| S=C(NC1=NCC(CN2CCN(c3ccccc3)CC2)O1)Nc1ccccc1 (stereo not given) | > 100 µM | > 100 µM | > 100 µM | > 100 µM | > 100 µM | > 100 µM | > 100 µM | > 100 µM | > 100 µM | > 100 µM |
| CCOC(=O)c1ccc(Nc2c3c(nc4ccccc24)CCCC3)cc1 | > 100 µM | > 100 µM | > 100 µM | > 100 µM | > 100 µM | > 100 µM | > 100 µM | > 100 µM | > 100 µM | > 100 µM |
